Data reported in patent US12285437B2 (The Research Foundation for The State University of new York, priority 2019, dated 2025).
Read-outs that look alike come from different tables or passages of the source.

What was measured:
[1] = tested on: SKOV3 human ovarian cancer cells; details: FIG. 9A, 4 μM
Description: (§1) pH-dependent anti-proliferation assays with cells. In 96-well plates, ˜3,000 cells were seeded per well then grown for 24-48 hr until 30-40% confluency. […] For serum effect cell plate data shown in FIG. 5I, cell viability was measured using alamar Blue assay (i.e., growth media was replaced with 45 μL of pH 7.4 DMEM/F-12 media without phenol red, 5 μL of alamar Blue reagent (10×) was added; fluorescence at 590 nm was recorded after excitation at 560 nm at 1 hr afterwards).
(§2) The reaction solution was allowed to stand at rt for 1 hr in the dark, during which the pH decreased to ˜9.6. After 1 hr, the reaction solution was split into two 50-μL portions (for pH 7.4 vs. pH 6.2-6.8 cell experiments). The pH of one portion was adjusted to pH 8 (for pH 7.4 cell experiments) or pH 7 (for pH 6.2-6.8 cell experiments). Subsequently, the solution was diluted 30-fold (to 10 μM) with pH 7.4 or pH 6.2-6.8 cell media (final volume 1.5 mL) and then filtered (0.2 micron) before used in cell experiments.

[2] = tested on: ES-2 human ovarian cancer cells; test: pH-dependent anti-proliferation assay (MTS; alamar Blue for FIG. 7I); details: for Cell Viability Average (Avg): FIG. 7A, ES-2, 6 hr
Excerpt: pH-dependent anti-proliferation assays with cells.
NaOH to adjust the pH to 9.9.

[3] = tested on: NIH:OVCAR3 human ovarian cancer cells
Description: as §1, §2

[4] = cancer patients, two hours afterwards; cited from earlier work
[5] = tested on: ES2 ovarian cancer cells; test: Antiproliferation assays against ES2 cancer cells at different pH values; format: cell-based, human; details: ES2, 2 h, 1 μM
Description: For cell experiments, a pH 8 or pH 10 (directly from DMI to DMA conversion) solution of DMA 2/4/6 was sterilized by filtering through a 0.2-micron membrane. […] At this point, small amounts of 10 (or 25) mM of sterile aq.
Antiproliferation assays against ES2 cancer cells at different pH values. […] Treatment solution volume was 50-100 μL per well, with a set volume per well for all wells in a plate.

[6] = tested on: noncancerous kidney epithelial HK2 cells; test: Cytotoxicity assays with noncancerous HK2 kidney cells; format: cell-based, human
Description: Cytotoxicity assays with noncancerous HK2 kidney cells. […] Dox and DMA prodrug experiments were carried out on separate plates. […] The cell viability in vehicle (buffer/DMSO) negative control treatment groups were treated as 100% during normalization of data.

[7] = tested on: MDA-MB-231 human breast cancer cells; details: 3 μM
Description: as §1, §2

[8] = tested on: PC-3 human prostate cancer cells; details: FIG. 9B, PC3, […], 4 μM
Description: as §1, §2

[9] = tested on: ES2 cells; test: Imaging studies (confocal microscopy); format: cell-based, human; details: ES2, 1 h
Description: Afterwards, the treatment solution was removed; the nuclei of the cells were labeled with staining dye Hoechst 33342; and then images were taken on a scanning confocal microscope.
Imaging studies (confocal microscopy). Approximately 8,000 ES2 cells were seeded on a colIagen-coated glass dish (MatTek Corporation, part No. P35GCOL-0-10-C) and cultured in McCoy's 5A medium with 10% fetal bovine serum and 1% penicillin-streptomycin at 37° C. in the incubator (5% CO2) overnight. […] After treatment solution was removed, the cells were washed 1× with 100 μL of DMEM/F12 pH-specific media. Prior to fluorescence imaging, the nuclei of cells were stained with 1 μg/mL Hoechst 33342 in PBS for 20 min at 37° C. in the incubator. Afterwards, cells stayed in pH-specific DMEM/F12 media during imaging. […] The images in FIGS. 33-36 were processed using LAS X and ImageJ.

COc1cccc2c1C(=O)c1c(O)c3c(c(O)c1C2=O)C[C@@](O)(C(=O)CO)C[C@@H]3O[C@H]1C[C@H](N)[C@H](O)[C@H](C)O1 [Dox, doxorubicin]
Cell Viability Avg ([1]; pH 6.3-6.5): 39%
Cell Viability Avg ([1]; pH 7.5-7.6): 22%
Cell Viability Average (Avg) ([2]; 0.5 μM, pH 6.6-6.8): 32%
Cell Viability Average (Avg) ([2]; 0.5 μM, pH 7.2-7.5): 16%
Cell Viability Avg ([2]; FIG. 7E, ES2, […], 1 μM, pH 6.3-6.4): 43%
Cell Viability Avg ([2]; FIG. 7E, ES2, […], 1 μM, pH 6.5): 49%
Cell Viability Avg ([2]; FIG. 7E, ES2, […], 1 μM, pH 6.7-6.8): 44%
Cell Viability Avg ([2]; FIG. 7E, ES2, […], 1 μM, pH 6.8-6.9): 42%
Cell Viability Avg ([2]; FIG. 7E, ES2, […], 1 μM, pH 7.2): 25%
Cell Viability Avg ([2]; FIG. 7E, ES2, […], 1 μM, pH 7.2-7.4): 23%
Cell Viability Avg ([2]; FIG. 7I, ES2, FBS(50%), 1 μM, pH 6.5-6.9): 71%
Cell Viability Avg ([2]; FIG. 7I, ES2, FBS(50%), 1 μM, pH 7.2-7.7): 36%
Cell Viability Avg ([2]; FIG. 7I, ES2, no FBS, 1 μM, pH 6.5-6.9): 77%
Cell Viability Avg ([2]; FIG. 7I, ES2, no FBS, 1 μM, pH 7.2-7.7): 48%
Cell Viability Avg ([2]; FIG. 8A, ES2, 0.1 μM, pH 6.6-6.7): 87%
Cell Viability Avg ([2]; FIG. 8A, ES2, 0.1 μM, pH 7.5-7.6): 62%
Cell Viability Avg ([2]; FIG. 8A, ES2, 0.3 μM, pH 6.6-6.7): 72%
Cell Viability Avg ([2]; FIG. 8A, ES2, 0.3 μM, pH 7.5-7.6): 33%
Cell Viability Avg ([2]; FIG. 8A, ES2, 1 μM, pH 6.6-6.7): 35%
Cell Viability Avg ([2]; FIG. 8A, ES2, 1 μM, pH 7.5-7.6): 15%
Cell Viability Avg ([2]; FIG. 8A, ES2, 3 μM, pH 6.6-6.7): 21%
Cell Viability Avg ([2]; FIG. 8A, ES2, 3 μM, pH 7.5-7.6): 2%
Cell Viability Avg ([2]; FIG. 8B, ES2, 2 hr, 1 μM, pH 6.6-6.8): 44%
Cell Viability Avg ([2]; FIG. 8B, ES2, 2 hr, 1 μM, pH 7.2-7.6): 23%
Cell Viability Avg ([2]; FIG. 8B, ES2, 6 hr, 0.5 μM, pH 6.6-6.8): 32%
Cell Viability Avg ([2]; FIG. 8B, ES2, 6 hr, 0.5 μM, pH 7.2-7.6): 16%
Cell Viability Avg ([2]; FIG. 8B, ES2, 12 hr, 0.5 μM, pH 6.6-6.8): 47%
Cell Viability Avg ([2]; FIG. 8B, ES2, 12 hr, 0.5 μM, pH 7.2-7.6): 13%
Cell Viability Avg ([2]; FIG. 8B, ES2, 24 hr, 1 μM, pH 6.6-6.8): 35%
Cell Viability Avg ([2]; FIG. 8B, ES2, 24 hr, 1 μM, pH 7.2-7.6): 15%
Cell Viability Avg ([2]; FIG. 10B, ES2, 12 hr, 0.5 μM, pH 6.6-6.7): 47%
Cell Viability Avg ([2]; FIG. 10B, ES2, 12 hr, 0.5 μM, pH 7.4-7.6): 13%
Cell Viability Avg ([3]; FIG. 7C, OVCAR3, 2 hr, 3 μM, pH 6.3-6.4): 57%
Cell Viability Avg ([3]; FIG. 7C, OVCAR3, 2 hr, 3 μM, pH 7.4-7.6): 24%
Cell Viability Avg ([3]; FIG. 7G, OVCAR3, 2 hr, 2 μM, pH 6.2-6.4): 60%
Cell Viability Avg ([3]; FIG. 7G, OVCAR3, 2 hr, 2 μM, pH 6.4-6.5): 55%
Cell Viability Avg ([3]; FIG. 7G, OVCAR3, 2 hr, 2 μM, pH 6.6-6.7): 58%
Cell Viability Avg ([3]; FIG. 7G, OVCAR3, 2 hr, 2 μM, pH 6.8-6.9): 46%
Cell Viability Avg ([3]; FIG. 7G, OVCAR3, 2 hr, 2 μM, pH 7.1-7.3): 51%
Cell Viability Avg ([3]; FIG. 7G, OVCAR3, 2 hr, 2 μM, pH 7.2-7.5): 48%
Cell Viability Avg ([3]; FIG. 10A, OVCAR3, 6 hr, 1 μM, pH 6.5-6.7): 81%
Cell Viability Avg ([3]; FIG. 10A, OVCAR3, 6 hr, 1 μM, pH 7.3-7.6): 51%
intratumoral concentration [4]: 0.5 to 5 mM
viability ([5]; pH 6.6-6.8): 60-70%
viability ([5]; FIG. 29A, pH 6.7): 60-70%
viability ([5]; FIG. 29A, pH 7.5): 28%
viability ([5]; FIG. 31A, pH 6.5-6.8): 40-60%
viability ([5]; FIG. 31A, pH 7.5): ~20%
viability ([6]; FIG. 29B, HK2, pH 7.4, 30 μM): 21%
cells killed ([6]; FIG. 30B, HK2, pH 7.4, 1 μM): 20%
viable cells ([6]; FIG. 30B, HK2, pH 7.4, 30 μM): 31%
cells killed ([6]; FIG. 31B, HK2, pH 7.4, 30 μM): > 80%
Cell Viability Avg ([7]; FIG. 7B, MDA-MB231, 2 hr, pH 6.3-6.4): 30%
Cell Viability Avg ([7]; FIG. 7B, MDA-MB231, 2 hr, pH 7.6-7.7): 15%
Cell Viability Avg ([7]; FIG. 7F, MDA-MB231, […], pH 6.3-6.4): 30%
Cell Viability Avg ([7]; FIG. 7F, MDA-MB231, […], pH 6.5): 29%
Cell Viability Avg ([7]; FIG. 7F, MDA-MB231, […], pH 6.6-6.7): 36%
Cell Viability Avg ([7]; FIG. 7F, MDA-MB231, […], pH 6.9-7.0): 30%
Cell Viability Avg ([7]; FIG. 7F, MDA-MB231, […], pH 7.2-7.3): 29%
Cell Viability Avg ([7]; FIG. 7F, MDA-MB231, […], pH 7.5-7.7): 31%
Cell Viability Avg ([8]; pH 6.3-6.4): 53%
Cell Viability Avg ([8]; pH 7.5-7.6): 15%
distribution of Dox fluorescence within cells [9]: within the nuclei
Dox fluorescence signals in cells, pH 6.7 vs. 7.7 ([9]; 4 μM Dox or 8 μM prodrug/DMI): More Dox fluorescence signals were observed at pH 7.7 than 6.7
